The values that follow come from US5622839A (ZymoGenetics, Inc., priority 1995, dated 1997).

What all share (type): cell-based
In data set [1] the target is T1, human calcitonin receptor (Homo sapiens, UniProt P30988).
T1 construct: Hollex encoded a protein of 474 amino acids; expressed in transfected cells; host or cells: BHK 570 / BHK/KZ10-20-48 (baby hamster kidney) stably transfected with pHollex
T1 sequence (P30988 25-474): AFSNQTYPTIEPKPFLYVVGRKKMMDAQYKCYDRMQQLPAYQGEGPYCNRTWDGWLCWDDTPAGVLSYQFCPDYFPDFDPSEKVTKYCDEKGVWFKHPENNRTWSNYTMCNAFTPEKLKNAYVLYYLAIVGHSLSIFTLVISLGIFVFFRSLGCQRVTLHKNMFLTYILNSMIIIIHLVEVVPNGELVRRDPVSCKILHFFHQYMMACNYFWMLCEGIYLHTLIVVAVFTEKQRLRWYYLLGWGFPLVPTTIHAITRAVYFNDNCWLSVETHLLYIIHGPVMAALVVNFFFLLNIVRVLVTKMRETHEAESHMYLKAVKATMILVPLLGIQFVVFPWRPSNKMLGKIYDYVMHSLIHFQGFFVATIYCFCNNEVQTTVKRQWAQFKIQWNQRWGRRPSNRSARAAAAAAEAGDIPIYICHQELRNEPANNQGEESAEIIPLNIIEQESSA
The data set is described as follows: CRE-luciferase induction in BHK/KZ10-20-48 cells transfected with pHollex (Hollex1, Hollex2). To be noted: Hollex1 and Hollex2 clones; 4 h at 37° C.; FIG. 3 and FIG. 4. As for the experimental part: This cell line permits the measurement of luciferase activity, adenylate cyclase activity and intracellular calcium concentrations in response to calcitonin binding to its receptor.
Plasmid KZ10 was transfected into BHK570 cells (available from ATCC as Accession no. CRL 10314) using the calcium phosphate precipitation method essentially as described by Graham and Van de Eb (Virol. 52: 456, 1973, which is incorporated by reference herein). The transfected cells were grown in growth medium (Dulbecco's modified Eagle's medium (DMEM) containing 10% fetal calf serum and 2.0 mm L-glutamine). After a few days in nonselective growth medium, the growth medium was replaced with methotrexate (MTX) selection medium (growth medium containing 250 nM MTX). The cells were then allowed to grow to confluency after which they were trypsinized and plated at limiting dilution into the wells of 96-well plates. […]
Induction was initiated by removing old medium from the wells and adding 100 μl of fresh growth medium and 100 μl of each 2× solution in triplicate sample wells. Uninduced levels were determined in triplicate wells to which 100 μl of DMEM containing 10% fetal calf serum was added. […]
Following induction, the medium was removed, and the wells were washed once with 200 μl/well PBS. […] The fold induction of luciferase for each agonist was calculated as follows: […]

Data set [2] concerns the target T1, human calcitonin receptor. In words: Inositol triphosphate assay in BHK 570 cells expressing pHollex.
Protocol: BHK 570 cells expressing the calcitonin receptor from pHollex or mock-transfected BHK 570 cells were plated into 24-well tissue culture dishes at about 200,000 cells per well. After 24 hours, the cells in each well were labeled by incubation in 0.5 ml of Dulbecco's Modified Eagles Medium (DMEM, JRH Biosciences, Lenexa, Kans.) containing 10% fetal calf serum and 4.0 μCi/ml of myo-(2-^3 H) inositol (specific activity=20 Ci/mmol; Amersham). At the end of a 24 hour incubation, the cells were washed with 1 ml prewarmed DMEM that had been buffered with 20 mM Hepes, pH 7.0 (Sigma Chemical Co.) containing 10 mM LiCl. The wash medium was removed by aspiration and replaced with 900 μl of fresh buffered medium. The cells were incubated for five to fifteen minutes at 37° C. After incubation, appropriate concentration of each agonist or antagonist was added to triplicate wells, and the cells were incubated for 30 minutes at 37° C.
The reaction was terminated by placing the cells on ice. Following aspiration of the media, the cells were then lysed by the addition of 1 ml of cold DMEM and 1 ml of ice-cold 10% perchloric acid. After ten minutes the cell lysates were transferred to tubes containing 500 μl of 10 mM EDTA, pH 7.0. […] Ten milliliters of OPTIFLUOR (Packard Instrument Co., Menden, Conn.) were added to each sample, and the samples were counted. […]
The target in data set [3] is T1, human calcitonin receptor. The data set is described as follows: cAMP response by radioimmunoassay (scintillation proximity assay) in Hollex1 and Hollex2. The conditions noted are these: 10 min; for EC50: read-out: ED50 (cAMP). As for the experimental part: The cAMP response of the transfectant clones Hollex1 and Hollex2 to calcitonin and forskolin was also assayed by radioimmunoassay using the cAMP [^125 I] scintillation proximity assay system (Amersham) using the manufacturer's directions. Briefly, either 1×10^5 cells per well or 3×10^5 cells per well were plated into the wells of a 24-well culture dish and grown for 2 days (1×10^5 cells per well) or overnight (3×10^5 cells per well) in selection medium. Calcitonin and forskolin were prepared in DMEM, 10% fetal calf serum, 10 μM IBMX at 0.0001-1000 nM and 25 μM, respectively.
The growth medium was replaced with 200 μl/well of agonist (either calcitonin or forskolin). The cells were incubated with the agonists for 10 minutes at 37° C. in 5% CO2. Following incubation, 800 μl of boiling water was added to each well. After 15 minutes the supernatants were collected and diluted 1:5 or 1:40 in acetate buffer (cAMP [^125 I] Scintillation Proximity Assay System (Amersham)). Samples were acetylated using triethylamine and acetic anhydride according to the protocol provided by the manufacturer.
A 100 μl aliquot of each acetylated sample was combined with 75 μl of ^125 I-cAMP, 75 μl anti-succinyl cAMP antisera and 75 μl of donkey anti-rabbit IgG coupled SPA beads (all assay solutions provided in the cAMP [^125 I] Scintillation Proximity Assay System (Amersham)) in a well of an Dynatech MICROLITE 2 plate. The trays were sealed and incubated overnight with continuous shaking on a rotary platform shaker at 200 rpm. The samples were counted in a Packard Top Count Microplate Scintillation Counter (Packard Instrument Co., Meriden, Conn.). A standard curve of 2-128 fmol acetylated cAMP was also run. Total ^125 I-cAMP bound and nonspecific binding were also determined.

As to salmon calcitonin, the “fold induction of luciferase” value in data set [1] is 5-10 fold. Moreover, the EC50 in data set [2] (Hollex1, 30 min at 37° C., read-out: ED50 (inositol phosphate)) was 9.5 nM; in data set [3] (Hollex1), 0.07 nM; in data set [3] (Hollex2), 0.04 nM. In addition, the inositol phosphate response result in data set [2] (Hollex2) was “no response”. Further, in data set [3] (Hollex1, saturating concentrations (10-100 nM)), the “induction of cAMP” value is given as 12 fold. Besides, in data set [3] (Hollex2, saturating concentrations (10-100 nM)), the “induction of cAMP levels” value was 5 fold.
